According to patent publication US20230293630A1, “Coronavirus T Cell Epitopes and Uses Thereof” (priority 2020, published 2023):
Like-named read-outs stand apart in the source and are kept apart here.

System: SARS-CoV-2-specific CD4+ T cells (OX40+CD137+) in PBMC
Assay type: cell-based, human
[1] = CD4+ T cell epitopes identified by AIM assay, share of donors responding
[2] = CD4+ T cell epitopes identified by AIM assay, sum of response per responding donor
[3] = CD4+ T cell epitopes identified by AIM assay, total response
[4] = CD4+ T cell epitopes identified by AIM assay, percent of tested donors responding
[5] = CD4+ T cell epitopes identified by AIM assay, total response summed over donors

Row | Sequence | Frequency of response (%) [1] | Magnitude by # of responding donors [2] | Sum of response [3] | Frequency of response (%) [4] | Sum of response [5] | Frequency of response (%) | Magnitude by # of responding donors | Sum of response
1 | SFLAHIQWMVMFTPL | 8% | 554 | 554 |  |  |  |  | 
2 | LTQHGKEDLKFPRGQ | 8% | 127 | 127 |  |  |  |  | 
3 | LNTDHSSSSDNIALL | 8% | 568 | 568 |  |  |  |  | 
4 | FLCWHTNCYDYCIPY | 7% | 209 | 209 |  |  |  |  | 
5 | LGRCDIKDLPKEITV | 25% | 313 | 938 |  |  |  |  | 
6 | VTKNSKVQIGEYTFE | 8% | 118 | 118 |  |  |  |  | 
7 | FGLVAEWFLAYILFT | 8% | 219 | 219 |  |  |  |  | 
8 | KLNDLCFTNVYADSF | 8% | 130 | 130 |  |  |  |  | 
9 | AENSVAYSNNSIAIP | 17% | 403 | 805 |  |  |  |  | 
10 | GKGQQQQGQTVTKKS | 7% | 318 | 318 |  |  |  |  | 
11 | YPKCDRAMPNMLRIM | 7% | 153 | 153 |  |  |  |  | 
12 | WNSNNLDSKVGGNYN | 9% | 101 | 101 |  |  |  |  | 
13 | QRNFYEPQIITTDNT | 7% | 302 | 302 |  |  |  |  | 
14 | LYIIKLIFLWLLWPV | 13% | 199 | 397 |  |  |  |  | 
15 | ASRELKVTFFPDLNG | 15% | 162 | 324 |  |  |  |  | 
16 | PDLNGDVVAIDYKHY | 15% | 215 | 430 |  |  |  |  | 
17 | SNFRVQPTESIVRFP |  | 243 |  | 9% | 243 |  |  | 
18 | LIFLWLLWPVTLACF | 8% | 1194 | 1194 |  |  |  |  | 
19 | RFYFYTSKTTVASLI | 8% | 126 | 126 |  |  |  |  | 

Row | Sequence | Frequency of response (%) [1] | Magnitude by # of responding donors [2] | Sum of response [3] | Frequency of response (%) [4] | Sum of response [5] | Frequency of response (%) | Magnitude by # of responding donors | Sum of response
20 | APHGVVFLHVTYVPA |  | 293 |  | 7% | 293 |  |  | 
21 | AIKLDDKDPNFKDQV | 8% | 585 | 585 |  |  |  |  | 
22 | SFNPETNILLNVPLH | 8% | 123 | 123 |  |  |  |  | 
23 | NTVKSVGKFCLEASF | 8% | 113 | 113 |  |  |  |  | 
24 | EGALNTPKDHIGTRN | 14% | 185 | 369 |  |  |  |  | 
25 | GIVNNTVYDPLQPEL | 7% | 164 | 164 |  |  |  |  | 
26 | YDANYFLCWHTNCYD | 7% | 209 | 209 |  |  |  |  | 
27 | LNQLTGYKKPASREL | 8% | 168 | 168 |  |  |  |  | 
28 | RLFARTRSMWSFNPE | 8% | 141 | 141 |  |  |  |  | 
29 | TTVAAFHQECSLQSC | 18% | 1008 | 2016 |  |  |  |  | 
30 | PNFSKLINIIIWFLL | 8% | 3802 | 3802 |  |  |  |  | 
31 | IWVATEGALNTPKDH | 7% | 200 | 200 |  |  |  |  | 
32 | QPYRVVVLSFELLHA | 7% | 183 | 183 |  |  |  |  | 
33 | EIYQAGSTPCNGVEG | 8% | 1121 | 1121 |  |  |  |  | 
34 | TRSMWSFNPETNILL | 17% | 205 | 410 |  |  |  |  | 
35 | FVSLAIDAYPLTKHP | 14% | 115 | 230 |  |  |  |  | 
36 | KHFYWFFSNYLKRRV [SEQ ID NO 244] | 8% | 959 | 959 |  |  |  |  | 
37 | LLLLDRLNQLESKMS [SEQ ID NO 247] | 21% | 581 | 1742 |  |  |  |  | 
38 | LYENQKLIANQFNSA | 7% | 195 | 195 |  |  |  |  | 

Row | Sequence | Frequency of response (%) [1] | Magnitude by # of responding donors [2] | Sum of response [3] | Frequency of response (%) [4] | Sum of response [5] | Frequency of response (%) | Magnitude by # of responding donors | Sum of response
39 | DDQIGYYRRATRRIR [SEQ ID NO 245] | 23% | 268 | 803 |  |  |  |  | 
40 | RVAGDSGFAAYSRYR | 15% | 139 | 278 |  |  |  |  | 
41 | YVVDDPCPIHFYSKW | 36% | 872 | 3488 |  |  |  |  | 
42 | KPSKRSFIEDLLFNK |  | 622 |  | 17% | 1243 |  |  | 
43 | QYGDCLGDIAARDLI | 8% | 152 | 152 |  |  |  |  | 
44 | AGFIKQYGDCLGDIA | 25% | 817 | 2450 |  |  |  |  | 
45 | FHQECSLQSCTQHQP | 18% | 413 | 826 |  |  |  |  | 
46 | WPQIAQFAPSASAFF | 33% | 376 | 1503 |  |  |  |  | 
47 | ELHLSWEVGKPRPPL | 8% | 103 | 103 |  |  |  |  | 
48 | PQNQRNAPRITFGGP | 6% | 222 | 222 |  |  |  |  | 
49 | AGNGGDAALALLLLD |  |  |  |  |  | 21% | 416 | 1249
50 | NAPRITFGGPSDSTG | 6% | 259 | 259 |  |  |  |  | 
51 | TFKCYGVSPTKLNDL | 8% | 221 | 221 |  |  |  |  | 
52 | DSKTQSLLIVNNATN | 9% | 108 | 108 |  |  |  |  | 
53 | YFTSDYYQLYSTQLS | 8% | 198 | 198 |  |  |  |  | 
54 | AAEASKKPRQKRTAT | 23% | 179 | 537 |  |  |  |  | 
55 | KLLKSIAATRGATVV [SEQ ID NO 258] |  | 230 |  | 6% | 230 |  |  | 
56 | CNLLLLFVTVYSHLL | 18% | 212 | 424 |  |  |  |  | 
